# From PMC6992764 (Nature Communications, 2020)
# System: Lewis lung carcinoma (LLC)
# Experiment: LLC subcutaneous tumor-growth model
# Format: in vivo, mice
# Description: For evaluating subcutaneous tumor growth, LLC or B16 cells (5 × 10^5) in 50 μl PBS were inoculated subcutaneously into the right flanks of mice. Mice were euthanized when their tumor volumes reached 4000 mm^3. Tumor sizes were measured twice a week using calipers. Tumor volume was calculated using the following formula: Volume = (width)^2 × length/2. For the lung metastasis model, 1 × 10^6 LLC or B16 cells in 200 μl PBS were injected intravenously into mice. Mice were euthanized at day 10 after tumor injection for the LLC model and day 5–9 for the B16 model, and the lungs were isolated after perfusion with PBS via the left ventricle. Visible lung metastases were counted in the left lobe. The diameters of metastatic nodules in the lung lobe image were measured using ImageJ software. […]
# Cells for flow cytometric analysis were prepared as follows: bone marrow cells were flushed from femurs, followed by incubation with ACK buffer to remove red blood cells. […] After blocking Fc receptors through incubation with an anti-mouse CD16/32 antibody (clone 2.4G2, dilution 1:100, Cat BE0307), cells were stained with fluorescence-labeled anti-mouse monoclonal antibodies. […] Flow cytometry data were obtained using a Gallios flow cytometer (Beckman Coulter) and analyzed with FlowJo software (version 10; FlowJo, LLC). […]
smiles,measurement,setting,value
"CCN(CC)C(=S)SSC(=S)N(CC)CC [DSF, disulfiram]",number of tumor-associated monocytes/macrophages,day 20 after tumor inoculation,reduced
same,subcutaneous tumor growth,oral DSF in diet (0.8 mg DSF/1 g CE-2) from 4 days after inoculation,inhibited
